Source: the NIST ThermoML archive (doi:10.1021/je400184t)

Test: excess molar enthalpy (molar enthalpy of mixing); xn = mol fraction of the nth substance listed
Details: 298.15 K, 101 kPa, Liquid, Calvet calorimetry

CN(CCO)CCO [N-methyldiethanolamine] + c1ccncc1
Details | excess molar enthalpy [kJ/mol]
x2 = 0.00136 | -0.002
x2 = 0.00718 | -0.008
x2 = 0.01292 | -0.014
x2 = 0.0186 | -0.019
x2 = 0.02422 | -0.025
x2 = 0.03106 | -0.03
x2 = 0.0378 | -0.035
x2 = 0.04445 | -0.04
x2 = 0.051 | -0.044
x2 = 0.05747 | -0.048
x2 = 0.06385 | -0.052
x2 = 0.0715 | -0.056
x2 = 0.07636 | -0.06
x2 = 0.08249 | -0.063
x2 = 0.08853 | -0.066
x2 = 0.0945 | -0.069
x2 = 0.1062 | -0.072
x2 = 0.1119 | -0.075
x2 = 0.1176 | -0.078
x2 = 0.1232 | -0.08
x2 = 0.1287 | -0.083
x2 = 0.1342 | -0.085
x2 = 0.139 | -0.087
x2 = 0.1396 | -0.09
x2 = 0.1449 | -0.092
x2 = 0.1528 | -0.094
x2 = 0.1606 | -0.097
x2 = 0.2605 | -0.118
x2 = 0.2684 | -0.119
x2 = 0.2722 | -0.12
x2 = 0.278 | -0.12
x2 = 0.2817 | -0.121
x2 = 0.2854 | -0.12
x2 = 0.2891 | -0.12
x2 = 0.2928 | -0.121
x2 = 0.2964 | -0.121
x2 = 0.2999 | -0.121
x2 = 0.3034 | -0.121
x2 = 0.3069 | -0.121
x2 = 0.3104 | -0.121
x2 = 0.3138 | -0.121
x2 = 0.3172 | -0.12
x2 = 0.3206 | -0.12
x2 = 0.3239 | -0.12
x2 = 0.3272 | -0.12
x2 = 0.3304 | -0.12
x2 = 0.3337 | -0.12
x2 = 0.3368 | -0.12
x2 = 0.34 | -0.12
x2 = 0.3431 | -0.119
x2 = 0.3463 | -0.119
x2 = 0.3493 | -0.119
x2 = 0.3524 | -0.119
x2 = 0.3554 | -0.119
x2 = 0.3584 | -0.118
x2 = 0.3614 | -0.118
x2 = 0.3643 | -0.118
x2 = 0.3672 | -0.118
x2 = 0.3701 | -0.117
x2 = 0.3729 | -0.117
x2 = 0.3758 | -0.117
x2 = 0.3786 | -0.116
x2 = 0.3814 | -0.116
x2 = 0.3841 | -0.116
x2 = 0.3868 | -0.116
x2 = 0.3895 | -0.115
x2 = 0.3922 | -0.115
x2 = 0.3949 | -0.115
x2 = 0.3975 | -0.114
x2 = 0.4001 | -0.114
x2 = 0.4027 | -0.114
x2 = 0.4053 | -0.113
x2 = 0.4078 | -0.113
x2 = 0.4104 | -0.113
x2 = 0.4129 | -0.112
x2 = 0.4153 | -0.112
x2 = 0.4178 | -0.112
x2 = 0.4203 | -0.111
x2 = 0.4227 | -0.111
x2 = 0.4251 | -0.111
x2 = 0.4274 | -0.11
x2 = 0.4298 | -0.11
x2 = 0.4321 | -0.11
x2 = 0.4345 | -0.109
x2 = 0.4368 | -0.109
x2 = 0.4391 | -0.108
x2 = 0.4414 | -0.108
x2 = 0.4436 | -0.108
x2 = 0.446 | -0.107
x2 = 0.4482 | -0.107
x2 = 0.4505 | -0.107
x2 = 0.4528 | -0.106
x2 = 0.4551 | -0.106
x2 = 0.4574 | -0.105
x2 = 0.4597 | -0.105
x2 = 0.462 | -0.105
x2 = 0.4643 | -0.104
x2 = 0.4666 | -0.104
x2 = 0.4689 | -0.103
x2 = 0.4712 | -0.103
x2 = 0.4735 | -0.103
x2 = 0.4758 | -0.102
x2 = 0.4781 | -0.102
x2 = 0.4804 | -0.101
x2 = 0.4827 | -0.101
x2 = 0.4849 | -0.101
x2 = 0.4872 | -0.1
x2 = 0.4895 | -0.1
x2 = 0.4918 | -0.099
x2 = 0.4941 | -0.099
x2 = 0.4964 | -0.098
x2 = 0.4987 | -0.098
x2 = 0.501 | -0.098
x2 = 0.5033 | -0.097
x2 = 0.5056 | -0.097
x2 = 0.5079 | -0.096
x2 = 0.5102 | -0.096
x2 = 0.5125 | -0.095
x2 = 0.5148 | -0.095
x2 = 0.5171 | -0.094
x2 = 0.5193 | -0.094
x2 = 0.5216 | -0.093
x2 = 0.5239 | -0.093
x2 = 0.5262 | -0.093
x2 = 0.5285 | -0.092
x2 = 0.5308 | -0.092
x2 = 0.5331 | -0.091
x2 = 0.5354 | -0.091
x2 = 0.5377 | -0.09
x2 = 0.54 | -0.09
x2 = 0.5423 | -0.089
x2 = 0.5446 | -0.089
x2 = 0.5469 | -0.088
x2 = 0.5492 | -0.088
x2 = 0.5515 | -0.087
x2 = 0.5538 | -0.087
x2 = 0.5561 | -0.086
x2 = 0.5584 | -0.086
